For this assay, the target named is T1, LuxR (Aliivibrio fischeri, UniProt P12746).
T1 sequence (P12746 1-250): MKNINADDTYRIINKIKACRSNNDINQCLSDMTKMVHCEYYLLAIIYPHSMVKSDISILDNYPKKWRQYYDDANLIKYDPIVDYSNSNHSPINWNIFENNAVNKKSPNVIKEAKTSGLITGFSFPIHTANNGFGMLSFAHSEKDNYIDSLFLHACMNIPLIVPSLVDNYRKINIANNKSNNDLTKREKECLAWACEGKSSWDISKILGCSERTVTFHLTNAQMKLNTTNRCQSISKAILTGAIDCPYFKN
The assay can be described thus: antagonism of […] 3-oxo-C6-HSL-induced bioluminescence, recombinant E. coli NM522 pSB401 LuxR biosensor. The class given is cell-based.

For the compound `CCCCCC(=O)Nc1ccccc1` [compound 12, N-Phenylhexanamide], the IC50 (in general, the concentration at which inhibition is half-maximal) was 79 µM.
Regarding `CCCC(=O)Nc1ccccc1[N+](=O)[O-]` [compound 1, N-(2-nitrophenyl)butanamide], the IC50 was found to be 58 µM.
On to `CCCCCC(=O)Nc1ccccc1[N+](=O)[O-]` [compound 2, N-(2-nitrophenyl)hexanamide], for which the IC50 stood at 94 µM.

Values taken from paper PMC6149922, “2-Substituted Aniline as a Simple Scaffold for LuxR-Regulated QS Modulation” (Molecules : A Journal of Synthetic Chemistry and Natural …, 2017).
